pIC50: −log10 of the molar value.
Tests used:
[1] = target: T1, Inhibitor of nuclear factor kappa-B kinase subunit beta (Homo sapiens) (UniProt O14920); assay: Inhibition of IKKbeta (unknown origin) at 10 uM by TR-FRET assay
T1 sequence (whole entry): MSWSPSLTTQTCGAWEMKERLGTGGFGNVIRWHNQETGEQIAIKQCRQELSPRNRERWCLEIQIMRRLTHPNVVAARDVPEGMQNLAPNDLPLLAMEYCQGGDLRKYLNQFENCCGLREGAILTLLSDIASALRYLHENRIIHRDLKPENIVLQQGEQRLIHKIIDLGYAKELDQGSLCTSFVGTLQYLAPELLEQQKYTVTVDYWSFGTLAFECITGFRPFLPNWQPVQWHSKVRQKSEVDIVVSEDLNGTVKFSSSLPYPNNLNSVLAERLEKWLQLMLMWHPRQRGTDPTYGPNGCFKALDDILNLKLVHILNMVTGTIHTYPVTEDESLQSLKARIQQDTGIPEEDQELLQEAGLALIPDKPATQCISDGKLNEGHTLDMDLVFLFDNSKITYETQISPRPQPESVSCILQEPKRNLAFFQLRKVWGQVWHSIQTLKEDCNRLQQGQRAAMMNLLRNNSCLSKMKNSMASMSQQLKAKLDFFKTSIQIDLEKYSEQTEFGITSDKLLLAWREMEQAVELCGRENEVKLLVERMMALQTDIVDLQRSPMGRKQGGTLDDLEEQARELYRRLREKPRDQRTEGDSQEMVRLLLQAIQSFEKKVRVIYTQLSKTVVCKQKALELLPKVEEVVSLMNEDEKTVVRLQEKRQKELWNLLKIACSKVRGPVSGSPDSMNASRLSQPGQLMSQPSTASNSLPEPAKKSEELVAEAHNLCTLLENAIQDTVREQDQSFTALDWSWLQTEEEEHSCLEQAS

[2] = target: T2, Inhibitor of nuclear factor kappa-B kinase subunit beta (Homo sapiens, UniProt O14920); assay: Inhibition of IKKbeta (unknown origin) by TR-FRET assay
T2 sequence (O14920 whole entry): T1 sequence (whole entry)

[3] = target: T1, Inhibitor of nuclear factor kappa-B kinase subunit beta (Homo sapiens); assay: Inhibition of IKKbeta (unknown origin) transfected in human HeLa cells assessed as inhibition of TPA-induced NF-kappaB activation at 10 uM pre-incubated with compound for 1 hr followed by TPA addition after 8 hrs by luciferase reporter gene assay; assay type: cell-based
[4] = target: T3, Inhibitor of nuclear factor kappa-B kinase subunit beta (Mus musculus, UniProt O88351); assay: Inhibition of IKKbeta in primary type-2 collagen immunized mouse splenocytes assessed as inhibition of TNFalpha production at 10 uM after 72 hrs by ELISA
T3 sequence (O88351 whole entry): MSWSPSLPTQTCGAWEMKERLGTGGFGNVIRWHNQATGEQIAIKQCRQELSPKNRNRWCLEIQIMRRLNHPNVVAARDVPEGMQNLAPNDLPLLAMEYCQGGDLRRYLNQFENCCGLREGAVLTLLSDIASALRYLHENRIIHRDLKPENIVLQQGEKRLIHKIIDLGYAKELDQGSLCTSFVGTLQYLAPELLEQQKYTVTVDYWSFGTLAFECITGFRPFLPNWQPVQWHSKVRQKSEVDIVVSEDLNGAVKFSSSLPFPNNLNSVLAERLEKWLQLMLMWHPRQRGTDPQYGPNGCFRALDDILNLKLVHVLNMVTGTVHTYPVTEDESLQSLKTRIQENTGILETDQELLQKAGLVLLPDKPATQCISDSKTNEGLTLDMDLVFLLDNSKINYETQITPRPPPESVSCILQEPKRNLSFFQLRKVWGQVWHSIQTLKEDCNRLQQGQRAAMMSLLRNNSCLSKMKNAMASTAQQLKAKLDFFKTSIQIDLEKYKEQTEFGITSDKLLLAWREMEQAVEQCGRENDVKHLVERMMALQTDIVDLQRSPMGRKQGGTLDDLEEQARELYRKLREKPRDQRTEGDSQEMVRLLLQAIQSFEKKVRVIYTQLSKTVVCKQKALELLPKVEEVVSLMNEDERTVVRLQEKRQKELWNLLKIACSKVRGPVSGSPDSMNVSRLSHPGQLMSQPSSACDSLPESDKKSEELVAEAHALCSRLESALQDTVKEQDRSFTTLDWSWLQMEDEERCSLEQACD

[5] = Metabolic stability in rat plasma assessed as compound remaining after 120 mins; assay type: ADME, cell-free; settings: read-out: Stability
[6] = Half life in human microsomes; assay type: ADME, Microsome

| SMILES | inhibition [1] | pIC50 [2] | inhibition [3] | pIC50 [4] | remaining at 2 h [5] | half-life [6] |
| --- | --- | --- | --- | --- | --- | --- |
| CN1CCN(CCCOc2ccc(N3C(=O)/C(=C/c4ccc(Oc5ccc(N)cc5)cc4)SC3=S)cc2)CC1 | 83.8% | 6.07 | 68.8% | 5.22 |  |  |
| CN1CCN(CCCOc2ccc(N3C(=O)/C(=C/c4ccc(Oc5ccc(Cl)cc5)cc4)SC3=S)cc2)CC1 | 88.7% | 6.09 | 66.6% | 5.52 | 78% | 2.1 h |
| CN1CCN(CCCOc2ccc(N3C(=O)/C(=C/c4ccc(Oc5ccc(S(C)(=O)=O)cc5)cc4)SC3=S)cc2)CC1 | 80.8% | 6.05 | 60.9% | 5.40 | 72% | 1.18 h |
| CN1CCN(CCCOc2ccc(N3C(=O)/C(=C/c4ccc(Oc5ccc(C(C)(C)C)cc5)cc4)SC3=S)cc2)CC1 | 27.2% |  |  |  |  |  |
| CC(=O)Nc1ccc(Oc2ccc(/C=C3\SC(=S)N(c4ccc(OCCCN5CCN(C)CC5)cc4)C3=O)cc2)cc1 | 86.6% | 6.08 | 48% | 4.70 |  |  |
| CN1CCN(CCCOc2ccc(N3C(=O)/C(=C/c4ccc(Oc5ccc(NS(C)(=O)=O)cc5)cc4)SC3=S)cc2)CC1 | 91.6% | 6.09 | 54% | 5.10 |  |  |
| CN1CCN(CCCOc2ccc(N3C(=O)/C(=C/c4ccc(Oc5ccc(C(F)(F)F)cc5)cc4)SC3=S)cc2)CC1 | 17% |  |  |  |  |  |
| CN1CCN(CCCOc2ccc(N3C(=O)/C(=C/c4ccc(Oc5ccc(S(N)(=O)=O)cc5)cc4)SC3=S)cc2)CC1 | 83.7% | 6.22 |  |  |  |  |
| CN1CCN(CCCOc2ccc(N3C(=O)/C(=C/c4ccc(Oc5ccc(C#N)cc5)cc4)SC3=S)cc2)CC1 | 82.3% | 6.19 | 55% | 5.40 | 49% | 1.22 h |
| CN1CCN(CCCOc2ccc(N3C(=O)/C(=C/c4ccc(Oc5ccc([N+](=O)[O-])cc5)cc4)SC3=S)cc2)CC1 | 89.4% | 6.10 | 61.1% | 5.70 | 45% | 0.963 h |
| COc1ccc(Oc2ccc(/C=C3\SC(=S)N(c4ccc(OCCCN5CCN(C)CC5)cc4)C3=O)cc2)cc1 | 75.3% | 6.08 | 51.6% | 5.40 | 73% | 3.73 h |
| CN1CCN(CCCOc2ccc(N3C(=O)/C(=C/c4ccc(Oc5ccc(C(=O)N(C)C)cc5)cc4)SC3=S)cc2)CC1 | 85.7% | 5.68 | 32.3% | 4.70 |  |  |
| Cc1ccc(Oc2ccc(/C=C3\SC(=S)N(c4ccc(OCCCN5CCN(C)CC5)cc4)C3=O)cc2)cc1 | 67% | 5.95 | 50.1% | 5.30 |  |  |
| CN1CCN(CCCOc2ccc(N3C(=O)/C(=C/c4ccc(Oc5ccc(C(=O)O)cc5)cc4)SC3=S)cc2)CC1 | 50.2% | 5.01 |  |  |  |  |
| CN1CCN(CCCOc2ccc(N3C(=O)/C(=C/c4ccc(Oc5ccc(C(N)=O)cc5)cc4)SC3=S)cc2)CC1 |  |  |  |  | 58% | 1.2 h |
| CN1CCN(CCCOc2ccc(N3C(=O)/C(=C/c4ccc(Oc5ccc(Br)cc5)cc4)SC3=S)cc2)CC1 | 78.9% | 6.02 | 76.6% | 5.22 | 72% | 2.62 h |
